We go through six compounds from patent US20260378560A1, “APPROACHES TO DESIGNING AND PERFORMING COMPRESSED BIOLOGICAL EXPERIMENTS AND SYSTEMS FOR IMPLEMENTING THE SAME” (EXVIVO LABS INC., priority 2023, published 2026).

The structures appear in SMILES notation.

Test [1] has as its system REH. The test can be described thus: Cell viability (CellTiter Glo), compressed perturbation pools with informed pool design, MAX-based deconvolution, REH.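 For DRS from MAX-based deconvolution: higher DRS means a larger drug effect.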 As to conditions: REH; for DRS: None (measured individually), informed pool design table; for DRS from MAX-based deconvolution: Samples, 7 Pick 3 informed perturbation pools; for DRS, REH, MAX: compressed perturbation pools, informed pool design, MAX-based deconvolution. An outline of the steps:
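Per-drug DRS recovered by MAX deconvolution, which assumes the strongest pool member masks the rest; after ranking, each drug in turn takes the DRS of the lowest-signal pool containing it, and leftovers score zero. Pools built from drug class and known toxic combinations; dose-response spans 1 nM to 10 μM, read by ATP-based luminescence.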
(Cellular ATP, detected with luciferase, serves as a proxy for viable cell number.)

In test [2] the test system is REH. The test can be described thus: ATP-based luminescence cell viability (CellTiter Glo), drug response score, REH. On the set-up: scale not given here. Conditions: for DRS from deconvolution: Target compression; for DRS, REH, None: no compression (individual drug). From the text:
As part of a screen, a drug could be screened at different concentrations ranging from a lowest concentration to a highest concentration. In such a scenario, multiple data structures may be obtained by the screening platform 210. […] With these multiple data structures, the analysis module 218 can generate a dose-response curve that describes the magnitude of the response of the biological target, as a function of exposure to different concentrations of the drug. Further, the analysis module 218 can calculate a metric that is indicative of the response of the biological target. In the event that the biological target is one of multiple biological targets that are introduced to the pools of drugs, the metric can be used by the screening platform 210 to better understand the relative magnitude of responses. One example of a metric is drug-response score (“DRS”). DRS can be calculated as a continuous function of multiple parameters of the non-linear dose-response curve, including the slope at the half-maximal effective concentration (also called “EC50”) and the top and bottom asymptotes of the dose-response curve. DRS can be calculated as follows: […]
where y is a continuous function of the variable dose x, a is the maximal response (i.e., the top asymptote of the curve), b is the slope of the curve, c is the IC50 (i.e., half-maximal inhibitory concentration), and d is the minimal response (i.e., the bottom asymptote of the curve). Other examples of metrics include those output by sigmoidal and Hill slide functions that, like DRS, incorporate multiple aspects of the dose-response curve into a continuous function.
Total cell viability was measured for each cancer cell line using an Adenosine TriPhosphate (“ATP”) assay, and more specifically an ATP-based luminescence assay (i.e., CellTiter Glo). Each cancer drug was screened at multiple concentrations ranging from one nanomolar (nM) to ten micromolar (UM) in order to generate a dose-response curve and calculate a drug response score (“DRS”) for each cancer cell line. The DRS was calculated as a continuous function of multiple parameters of the non-linear dose-response curve, including the slope at the half-maximal effective concentration (also called “EC50”) and the top and bottom asymptotes of the dose-response curve. […] After total cell viability was measured and DRS was calculated, the DRS of each cancer cell line in the pool was deconvolved for each cancer drug.
DRS for these anchor cell lines are bolded and italicized. Anchors can be identified based on frequency of the cell lines in pools with high DRS versus low DRS. At a high level, an anchor is predicted to be the cell line with the lowest individual DRS. In order to deconvolute individual cell line DRS values from pool DRS values, the anchor can start with an assumed DRS value of zero. Each pool can then be expressed as a polynomial of variables (cell lines in the pool) and constants (DRS value of the pool). The DRS value of each cell line can then be solved for using the anchor value and overlapping polynomial expressions. When multiple values are calculated for the final target solved from the polynomials, then the anchor has a non-zero value that can be determined based on the difference in the calculated value of the final target.
Each pool represented a co-culture of three cell lines (“Target Compression”).

The subject of test [3] is REH. The test can be described thus: Cell viability (CellTiter Glo), library of cancer drugs, individual or sample compression with randomized (alphabetical) pools, REH. It counts as cell-based. Conditions: REH; for DRS: None (measured individually); for DRS from deconvolution: Samples, 7 Pick 3 randomized (alphabetical) sample pools. An outline of the steps:
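Cells cultured with each drug individually at 1 nM–10 μM; viability by ATP luminescence (CellTiter Glo) to build dose-response curves and DRS. Samples read singly or pooled alphabetically (each drug in 3 of 7 pools), with pooled DRS recovered by additivity-based SUM deconvolution.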

On to `N#Cc1ccnc(N2C(=O)CC[C@H]2C(=O)N(c2cncc(F)c2)[C@H](C(=O)NC2CC(F)(F)C2)c2ccccc2Cl)c1` [Ivosidenib], for which the DRS turned out to be 3.12 with REH [1] and 0.37 with REH [3]. Further, the “DRS from MAX-based deconvolution” value in the test with REH [1] turned out to be 3.55. Also, the DRS from deconvolution in the test on REH [2] (5 Pick 3 pools) was determined as 0.53; in the test on REH [2] (6 Pick 3 pools) it was 0.58; in the test on REH [2] (7 Pick 3 pools) it was 0.49; in the test with REH [3] it was 0.00.

On to `Cc1[nH]c2ccccc2c1CCNCc1ccc(/C=C/C(=O)NO)cc1` [Panobinostat], for which the DRS in the test on REH [1] stood at 3.01; in the test with REH [3], 13.34. In addition, the “DRS from MAX-based deconvolution” value in the test with REH [1] stood at 3.96. In addition, the DRS from deconvolution amounted to 12.12 in the test on REH [2] (5 Pick 3 pools), 12.62 with REH [2] (6 Pick 3 pools), 12.90 in the test on REH [2] (7 Pick 3 pools) and 13.96 with REH [3].

As to `COc1c(OCCCN2CCOCC2)ccc2c1N=C(NC(=O)c1cnc(N)nc1)N1CCN=C21` [Copanlisib], the DRS in the test with REH [1] is 1.63; in the test with REH [3], 12.67. In addition, in the test with REH [1], the “DRS from MAX-based deconvolution” value came to 2.12. Moreover, the DRS from deconvolution with REH [2] (5 Pick 3 pools) turned out to be 12.96; in the test on REH [2] (6 Pick 3 pools) it was 13.28; in the test on REH [2] (7 Pick 3 pools) it was 12.09; in the test on REH [3] it was 12.51.

For the compound `C=CC(=O)Nc1cc(Nc2nccc(-c3cn(C)c4ccccc34)n2)c(OC)cc1N(C)CCN(C)C` [Osimertinib], in the test with REH [1], the DRS is recorded as 0.10; the “DRS from MAX-based deconvolution” value is reported as 0.00; the “DRS, REH, MAX” value is given as 0.00. The “DRS, REH, None” value in the test with REH [2] worked out at 2.01. Besides, in the test with REH [3], the DRS was determined as 5.84 and the DRS from deconvolution worked out at 6.12.

For `CC1(C)CCC(CN2CCN(c3ccc(C(=O)NS(=O)(=O)c4ccc(NCC5CCOCC5)c([N+](=O)[O-])c4)c(Oc4cnc5[nH]ccc5c4)c3)CC2)=C(c2ccc(Cl)cc2)C1` [Venetoclax], the DRS in the test with REH [1] came to 4.37; in the test with REH [3] it was 3.91. Further, in the test with REH [1], the “DRS from MAX-based deconvolution” value amounted to 0.00. The “DRS, REH, MAX” value with REH [1] was determined as 4.43. The DRS from deconvolution in the test on REH [2] (5 Pick 3 pools) came to 1.56; in the test on REH [2] (6 Pick 3 pools), 3.18; in the test with REH [2] (7 Pick 3 pools), 1.88; in the test on REH [3] it was 4.05.

Consider `COc1cc2ncnc(Nc3ccc(F)c(Cl)c3)c2cc1OCCCN1CCOCC1` [Gefitinib], for which, in the test on REH [1], the DRS stood at 0.00; the “DRS from MAX-based deconvolution” value was 0.00; the “DRS, REH, MAX” value is 4.06. Besides, the “DRS, REH, None” value in the test on REH [2] is 3.15. In the test with REH [3], the DRS came out at 5.66 and the DRS from deconvolution was 5.59.
